From patent US20220162537A1, “FLUID SYSTEM FOR PRODUCING EXTRACELLULAR VESICLES COMPRISING A THERAPEUTIC OR IMAGING AGENT AND METHOD THEREOF” (CENTRE NATIONAL DE LA RECHERCHE SCIENTIFIQUE, priority 2018, published 2022)

System: HT29 tumors
Assay: HT29 tumor growth retardation after photodynamic therapy (Kaplan-Meier)
Assay type: in vivo, mice
Conditions: photodynamic therapy with laser activation
From the text: FIG. 8 illustrates Kaplan-Meier diagrams of HT29 tumor growth retardation after treatment with free mTHPC; the liposomal formulation of mTHPC (mTHPC Liposome) and mTHPC vesicles with laser activation of the drug (photodynamic therapy), compared to the same groups without laser activation (control, dotted lines).
FIG. 8 illustrates Kaplan-Meier diagrams of tumor growth retardation HT29 after treatment with free mTHPC; the liposomal formulation of mTHPC and mTHPC-EVs with laser activation of the drug (photodynamic therapy, three-dimensional therapies), compared to the same groups without laser activation (control, dotted lines). The inventors have compared the therapeutic effect of EVs mTHPC, the liposomal formulation of mTHPC and free mTHPC in terms of tumor growth, 90 days after treatment. […] Thus, compared to the liposomes, the charged vesicles of active agents obtained according to the methods of the present invention can constitute a very advantageous alternative both of the point of view of the pharmacodynamics properties and the effectiveness of the treatment carried out. The liposomes are known for the vectorization of various biomolecules such as enzymes, hormones, antisense oligonucleotides, ribozymes, proteins or DNA peptides, cancer molecules (Farjadian et al 2018). […]

Oc1cccc(-c2c3nc(c(-c4cccc(O)c4)c4ccc([nH]4)c(-c4cccc(O)c4)c4nc(c(-c5cccc(O)c5)c5ccc2[nH]5)CC4)C=C3)c1 [mTHPC, meta-tetra (hydroxyphenyl) chlorin]
percentage of tumors (growth 10 times higher criterion) at day 90: 20%
